The source of these data is patent publication US9428466B2, “Methods for reducing uric acid levels using barbiturate derivatives” (priority 2013, dated 2016).

The target in one series is URAT1 (SLC22A12) (Homo sapiens (Human), UniProt Q96S37). Description: URAT1 cellular uptake assay (3H-orotate transport, stably transfected URAT-1/CHO cells). It counts as cell-based. The conditions noted are these: 3H-orotate uptake, 7 concentrations 0.01 to 150 μM, read-out: URAT1 IC50 (μM ± SEM). As for the experimental part:
URAT1 (SLC22A12) activity was evaluated in a cellular uptake assay using a 96-well plate with stably transfected URAT-1/CHO cells. ^3H-orotate was used as the test transport agent, which was measured in a liquid scintillation counter, using benzbromarone as a positive control, and DMSO and non-transfected CHO cells as negative controls (Solvo Biotechnology, Boston, Mass.).

A further series concerns CHO-K1 cells. Briefly: In vitro mouse micronucleus assay (a test for cytotoxicity). The class given is cell-based. The conditions noted are these: 24 hr without S9 and 4 hr with S9, 62 μM-1000 μM. How it is done: The in vitro mouse micronucleus assay was conducted in CHO-K1 cells seeded in 96-well plates and treated with test compounds for 24 hr (without S9) and for 4 hr (with S9). Cytochalasin B was added after 24 hr, and the cells were incubated for an additional 24 hr, after which the cells were fixed and scored for micronuclei. The assay was run using 6 concentrations in duplicate (62 μM-1000 μM), and data for the highest 5 concentrations that were not cytotoxic were reported. Cellular nuclei and micronuclei were stained, and an automated fluorescent microscopic detection system was used to score micronuclei in approximately 2,000 bi-nucleated cells per concentration.

Series [1] deals with T1, xanthine oxidase (Homo sapiens (Human), UniProt P47989). Description: Fluorescence-based xanthine oxidase activity assay. The conditions noted are these: triplicate, 10 concentrations. The class given is biochemical. How it is done:
Xanthine oxidase inhibition was determined using a standard fluorescence-based assay for xanthine oxidase activity (McHale A, Grimes H, Coughlan M P: Int J Biochem. 10:317-9, 1979) with minor variations. […] Experiments on test compounds were performed in triplicate in multi-well plates using 10 concentrations of each compound that ranged over a 3-fold dilution.

The target of series [2] is T1, xanthine oxidase. The conditions noted are these: data taken from publications; cited from earlier work.

The term IC50 denotes the concentration that inhibits the measured activity by half.

Structures are written as SMILES. Read-outs that look alike come from different tables or passages of the source.

Chain of URAT1 (SLC22A12) (Q96S37 whole entry): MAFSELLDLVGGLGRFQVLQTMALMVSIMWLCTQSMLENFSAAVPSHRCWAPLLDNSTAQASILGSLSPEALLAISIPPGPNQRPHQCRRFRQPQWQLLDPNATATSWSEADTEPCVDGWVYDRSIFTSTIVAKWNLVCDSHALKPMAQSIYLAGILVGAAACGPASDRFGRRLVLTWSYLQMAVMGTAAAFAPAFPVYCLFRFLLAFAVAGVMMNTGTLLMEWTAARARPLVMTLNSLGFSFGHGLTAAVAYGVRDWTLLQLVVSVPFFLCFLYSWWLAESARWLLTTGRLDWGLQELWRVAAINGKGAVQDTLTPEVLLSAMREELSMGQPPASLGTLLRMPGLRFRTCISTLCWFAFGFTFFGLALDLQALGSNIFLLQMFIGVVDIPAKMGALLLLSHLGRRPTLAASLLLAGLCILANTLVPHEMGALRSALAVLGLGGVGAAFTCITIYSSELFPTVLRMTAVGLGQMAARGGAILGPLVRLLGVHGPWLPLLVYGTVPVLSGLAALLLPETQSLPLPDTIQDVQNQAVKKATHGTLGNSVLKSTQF
T1 sequence (P47989 whole entry, species assumed): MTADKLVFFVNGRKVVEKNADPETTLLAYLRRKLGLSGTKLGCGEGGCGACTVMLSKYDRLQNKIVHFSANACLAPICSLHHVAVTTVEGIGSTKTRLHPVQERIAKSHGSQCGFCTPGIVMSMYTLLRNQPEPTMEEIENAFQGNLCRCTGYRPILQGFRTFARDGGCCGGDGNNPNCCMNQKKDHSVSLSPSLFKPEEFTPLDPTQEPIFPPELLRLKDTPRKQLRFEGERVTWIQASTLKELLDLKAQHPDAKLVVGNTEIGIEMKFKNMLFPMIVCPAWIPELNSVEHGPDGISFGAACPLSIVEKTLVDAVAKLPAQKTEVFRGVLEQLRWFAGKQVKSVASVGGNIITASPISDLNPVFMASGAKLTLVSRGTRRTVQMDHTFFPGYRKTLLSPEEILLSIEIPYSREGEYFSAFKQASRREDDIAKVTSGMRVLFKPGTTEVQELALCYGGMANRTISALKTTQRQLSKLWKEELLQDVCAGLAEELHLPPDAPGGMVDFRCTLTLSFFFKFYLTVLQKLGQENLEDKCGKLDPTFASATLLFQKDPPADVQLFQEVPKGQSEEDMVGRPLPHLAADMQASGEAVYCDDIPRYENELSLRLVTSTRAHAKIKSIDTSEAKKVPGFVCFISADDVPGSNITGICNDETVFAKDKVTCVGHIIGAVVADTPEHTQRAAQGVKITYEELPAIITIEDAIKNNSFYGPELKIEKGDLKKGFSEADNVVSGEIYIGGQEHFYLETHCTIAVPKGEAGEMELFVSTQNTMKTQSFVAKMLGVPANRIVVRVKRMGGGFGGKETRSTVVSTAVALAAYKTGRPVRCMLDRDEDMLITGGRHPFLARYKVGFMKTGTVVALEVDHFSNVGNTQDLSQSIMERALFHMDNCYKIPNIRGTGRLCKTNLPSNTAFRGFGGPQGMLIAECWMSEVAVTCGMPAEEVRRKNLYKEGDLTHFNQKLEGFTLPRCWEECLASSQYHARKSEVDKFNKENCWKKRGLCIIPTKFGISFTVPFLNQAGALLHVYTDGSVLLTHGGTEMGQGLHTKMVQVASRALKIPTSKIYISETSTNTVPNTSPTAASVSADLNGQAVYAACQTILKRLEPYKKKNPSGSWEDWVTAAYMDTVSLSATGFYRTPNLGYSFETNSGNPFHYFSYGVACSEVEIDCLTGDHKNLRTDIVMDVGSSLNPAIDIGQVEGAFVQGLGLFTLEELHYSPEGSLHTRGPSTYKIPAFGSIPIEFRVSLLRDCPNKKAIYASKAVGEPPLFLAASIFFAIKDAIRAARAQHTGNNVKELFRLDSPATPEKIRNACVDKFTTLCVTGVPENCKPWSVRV

As for `O=C(Nc1ccccc1)c1c(O)[nH]c(=O)[nH]c1=O` [2-oxo-desthiomerbarone, 1,2,3,4-tetrahydro-6-hydroxy-2,4-dioxo-N-phenyl-5-pyrimidinecarboxamide], the IC50 on URAT1 (SLC22A12) is 1.2 µM; against xanthine oxidase [1] it was more than 300 µM. Further, the “Mouse Micronucleus” value in the series on CHO-K1 cells is given as “Positive”.

As to `O=C(Nc1ccc(O)cc1)c1c(O)[nH]c(=O)[nH]c1=O` [4′-hydroxy-2-oxo-desthiomerbarone, 1,2,3,4-tetrahydro-6-hydroxy-2,4-dioxo-N-(4′-hydroxyphenyl)-5-pyrimidinecarboxamide], the IC50 at URAT1 (SLC22A12) worked out at 2.6 ± 0.6 µM; against xanthine oxidase [1], 1.06 µM. Also, the “Mouse Micronucleus” value in the series with CHO-K1 cells is listed as “Negative”.

Regarding `O=C(Nc1ccc(O)cc1)c1c(O)[nH]c(=S)[nH]c1=O` [4′-hydroxymerbarone, 1,2,3,4-tetrahydro-6-hydroxy-2-thioxo-4-oxo-N-(4′-hydroxyphenyl)-5-pyrimidinecarboxamide], the IC50 was determined as 9.4 ± 0.6 µM at URAT1 (SLC22A12) and 0.68 µM against xanthine oxidase [1]. In addition, the “Mouse Micronucleus” value with CHO-K1 cells is listed as “Negative”.

As to `O=C(O)CSc1nnc(Br)n1-c1ccc(C2CC2)c2ccccc12` [Lesinurad, lesinurad], the IC50 on xanthine oxidase [2] is more than 300 µM.

With `O=C1NC(=S)NC(=O)C1C(=O)Nc1ccccc1` [Merbarone, 5-(N-phenylcarboxamido)-2-thio-barbituric acid, reference compound], the results for the IC50 on URAT1 (SLC22A12) and at xanthine oxidase [1] were 5.4 ± 1 µM and 274 µM, respectively. Moreover, the “Mouse Micronucleus” value in the series on CHO-K1 cells is recorded as “Positive”.
